Patent US9527869B2, “Indolizine derivatives as phoshoinositide 3-kinases inhibitors” (CHIESI FARMACEUTICI S.P.A., priority 2014, dated 2016)

Legend:
Format in all cases: biochemical
[1] = biological target: T1, PI3Kβ (Homo sapiens, UniProt P42338); experiment: In vitro determination of the PI3K enzyme inhibitory activity in the cell free assay (ADP-Glo Kinase Assay), PI3Kβ; settings: ATP 100 μM, read-out: PI3K beta inhibition
T1 construct: purchased Millipore Ltd (Billerica, Mass.)
Description: (§1) In vitro Determination of the PI3K Enzyme Inhibitory Activity in the Cell Free Assay
(§2) Human recombinant proteins PI3Kα, PI3Kβ, PI3Kγ and PI3Kδ were purchased from Millipore Ltd (Billerica, Mass.). Compounds were dissolved at 0.5 mM in DMSO and were tested at different concentrations for their activity against PI3Ks using the ADP-Glo™ Kinase Assay (Promega, Madison Wis.) according to the manufacturer's instructions.
(§3) Briefly, the kinase reactions were performed in 384-well white plates (Greiner Bio-One GmbH, Frickenhausen). Each well was loaded with 0.1 μl of test compounds and 2.5 μl of 2× reaction buffer (40 mM Tris pH7.5, 0.5 mM EGTA, 0.5 mM Na3VO4, 5 mM β-glycerophosphate, 0.1 mg/ml BSA, 1 mM DTT), containing 50 μM PI and PS substrates (L-α-phosphatidylinositol sodium salt and L-α-phosphatidyl-L-serine, Sigma-Aldrich, St. Louis Mo.) and the PI3K recombinant proteins (PI3Kγ 0.25 ng/μl, PI3Kδ 1 ng/μl, PI3Kα 0.125 ng/μl, PI3Kβ 1 ng/μl).
(§4) The reactions were started by adding 2.5 μl of 2×ATP solution to each well (final concentrations: PI3Kγ ATP 30 μM; PI3Kδ ATP 80 μM; PI3KαATP 50 μM; PI3Kβ ATP 100 μM) and incubated for 60 min at room temperature. Subsequently, each kinase reaction was incubated for 40 min with 5 μl ADP-Glo™ Reagent, allowing depletion of unconsumed ATP. Then, the Kinase Detection Reagent (10 μl) was added in each well to convert ADP to ATP and to allow the newly synthesized ATP to be measured using a luciferase/luciferin reaction. Following 60 min incubation, the luminescence signal was measured using a Wallac EnVision® multilabel reader (PerkinElmer, Waltham Mass.).
(§5) Curve fitting and IC50 calculation were carried out using a four-parameter logistic model in XLfit (IDBS, Guilford, UK) for Microsoft Excel (Microsoft, Redmont, Wash.).

[2] = biological target: T2, PI3Kα (Homo sapiens, UniProt P42336); experiment: In vitro determination of the PI3K enzyme inhibitory activity in the cell free assay (ADP-Glo Kinase Assay), PI3Kα; settings: ATP 50 μM, read-out: PI3K alpha inhibition
T2 construct: purchased Millipore Ltd (Billerica, Mass.)
Description: as §1, §2, §3, §4, §5

[3] = biological target: T3, PI3Kγ (Homo sapiens, UniProt P48736); experiment: In vitro determination of the PI3K enzyme inhibitory activity in the cell free assay (ADP-Glo Kinase Assay), PI3Kγ; settings: ATP 30 μM, read-out: PI3K gamma inhibition
T3 construct: purchased Millipore Ltd (Billerica, Mass.)
Description: as §1, §2, §3, §4, §5

[4] = biological target: T4, PI3Kδ (Homo sapiens, UniProt O00329); experiment: In vitro determination of the PI3K enzyme inhibitory activity in the cell free assay (ADP-Glo Kinase Assay), PI3Kδ; settings: ATP 80 μM, read-out: PI3K delta inhibition
T4 construct: purchased Millipore Ltd (Billerica, Mass.)
Description: as §1, §2, §3, §4, §5

T2 sequence (P42336 whole entry): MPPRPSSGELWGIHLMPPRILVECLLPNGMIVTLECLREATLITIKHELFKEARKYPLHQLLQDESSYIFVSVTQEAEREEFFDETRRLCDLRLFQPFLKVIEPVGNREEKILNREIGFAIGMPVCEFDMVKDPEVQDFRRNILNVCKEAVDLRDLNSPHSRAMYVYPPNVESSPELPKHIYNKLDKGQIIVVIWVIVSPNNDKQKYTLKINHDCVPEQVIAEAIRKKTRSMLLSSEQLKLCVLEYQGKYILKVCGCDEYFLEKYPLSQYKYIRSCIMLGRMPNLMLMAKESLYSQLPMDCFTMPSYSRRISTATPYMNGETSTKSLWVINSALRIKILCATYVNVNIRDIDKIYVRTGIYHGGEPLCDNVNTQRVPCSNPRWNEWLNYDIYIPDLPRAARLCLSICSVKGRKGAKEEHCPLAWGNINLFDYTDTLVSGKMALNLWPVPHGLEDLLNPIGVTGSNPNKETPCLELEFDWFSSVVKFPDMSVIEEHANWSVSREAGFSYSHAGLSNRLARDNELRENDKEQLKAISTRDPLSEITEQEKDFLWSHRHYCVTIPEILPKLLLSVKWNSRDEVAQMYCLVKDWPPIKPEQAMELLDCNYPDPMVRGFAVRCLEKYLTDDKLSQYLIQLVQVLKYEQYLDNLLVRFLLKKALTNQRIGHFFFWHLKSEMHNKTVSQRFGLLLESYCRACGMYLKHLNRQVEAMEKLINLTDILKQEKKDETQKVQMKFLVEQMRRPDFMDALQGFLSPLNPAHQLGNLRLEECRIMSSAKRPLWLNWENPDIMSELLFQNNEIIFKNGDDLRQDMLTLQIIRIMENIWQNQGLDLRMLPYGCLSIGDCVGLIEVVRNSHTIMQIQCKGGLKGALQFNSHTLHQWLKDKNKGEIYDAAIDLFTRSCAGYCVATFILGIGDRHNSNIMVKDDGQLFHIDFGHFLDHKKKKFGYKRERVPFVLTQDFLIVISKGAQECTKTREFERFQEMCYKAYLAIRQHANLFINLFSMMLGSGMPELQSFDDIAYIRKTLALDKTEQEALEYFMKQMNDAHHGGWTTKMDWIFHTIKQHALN
T2 sequence (P27986 whole entry partner): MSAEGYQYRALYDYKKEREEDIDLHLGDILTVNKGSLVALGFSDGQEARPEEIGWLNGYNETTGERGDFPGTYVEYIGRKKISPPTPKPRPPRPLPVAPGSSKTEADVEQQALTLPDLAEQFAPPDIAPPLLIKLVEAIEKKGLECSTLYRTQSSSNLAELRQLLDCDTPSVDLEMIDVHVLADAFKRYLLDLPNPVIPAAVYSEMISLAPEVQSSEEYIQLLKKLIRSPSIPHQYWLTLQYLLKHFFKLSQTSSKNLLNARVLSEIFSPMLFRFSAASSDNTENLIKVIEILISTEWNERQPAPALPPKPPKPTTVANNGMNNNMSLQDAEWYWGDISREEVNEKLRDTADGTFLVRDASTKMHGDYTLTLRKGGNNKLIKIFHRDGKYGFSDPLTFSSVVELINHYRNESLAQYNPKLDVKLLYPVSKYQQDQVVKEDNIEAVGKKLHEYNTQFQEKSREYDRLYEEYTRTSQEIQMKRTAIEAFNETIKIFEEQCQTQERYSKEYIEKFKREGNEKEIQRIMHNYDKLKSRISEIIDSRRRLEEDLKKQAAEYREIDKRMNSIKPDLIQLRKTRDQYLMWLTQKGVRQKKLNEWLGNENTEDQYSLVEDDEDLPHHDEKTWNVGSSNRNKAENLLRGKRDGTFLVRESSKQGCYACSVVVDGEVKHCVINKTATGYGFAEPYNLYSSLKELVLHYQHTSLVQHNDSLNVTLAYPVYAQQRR
T3 sequence (P48736 whole entry): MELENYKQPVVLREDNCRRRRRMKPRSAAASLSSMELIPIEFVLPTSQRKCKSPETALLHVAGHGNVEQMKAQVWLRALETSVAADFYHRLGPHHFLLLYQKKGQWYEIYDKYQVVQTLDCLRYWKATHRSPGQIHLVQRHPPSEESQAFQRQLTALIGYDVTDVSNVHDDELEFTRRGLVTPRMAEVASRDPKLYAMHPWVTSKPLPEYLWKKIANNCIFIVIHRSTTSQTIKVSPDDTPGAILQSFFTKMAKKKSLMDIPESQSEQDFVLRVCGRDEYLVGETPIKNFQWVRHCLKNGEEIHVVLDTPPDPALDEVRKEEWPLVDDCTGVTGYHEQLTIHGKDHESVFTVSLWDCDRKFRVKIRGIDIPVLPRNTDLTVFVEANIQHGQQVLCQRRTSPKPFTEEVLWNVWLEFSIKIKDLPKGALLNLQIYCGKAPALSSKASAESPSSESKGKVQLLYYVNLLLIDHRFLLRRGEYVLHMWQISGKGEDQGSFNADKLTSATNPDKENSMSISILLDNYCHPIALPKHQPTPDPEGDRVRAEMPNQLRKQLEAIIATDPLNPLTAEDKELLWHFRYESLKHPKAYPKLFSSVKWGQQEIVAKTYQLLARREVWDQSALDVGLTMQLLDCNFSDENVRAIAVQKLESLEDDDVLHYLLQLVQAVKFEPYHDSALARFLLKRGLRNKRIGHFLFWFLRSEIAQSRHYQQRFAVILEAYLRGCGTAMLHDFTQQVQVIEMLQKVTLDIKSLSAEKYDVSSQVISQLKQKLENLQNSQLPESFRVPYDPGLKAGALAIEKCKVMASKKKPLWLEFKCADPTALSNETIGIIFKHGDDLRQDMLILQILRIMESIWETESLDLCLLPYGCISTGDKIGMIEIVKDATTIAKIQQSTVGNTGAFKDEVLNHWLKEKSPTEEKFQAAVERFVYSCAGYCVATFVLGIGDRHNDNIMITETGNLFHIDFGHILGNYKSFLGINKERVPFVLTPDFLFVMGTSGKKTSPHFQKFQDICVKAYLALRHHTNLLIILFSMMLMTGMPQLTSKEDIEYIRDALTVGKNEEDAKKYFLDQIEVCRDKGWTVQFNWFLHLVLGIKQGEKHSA
T1 sequence (P42338 whole entry): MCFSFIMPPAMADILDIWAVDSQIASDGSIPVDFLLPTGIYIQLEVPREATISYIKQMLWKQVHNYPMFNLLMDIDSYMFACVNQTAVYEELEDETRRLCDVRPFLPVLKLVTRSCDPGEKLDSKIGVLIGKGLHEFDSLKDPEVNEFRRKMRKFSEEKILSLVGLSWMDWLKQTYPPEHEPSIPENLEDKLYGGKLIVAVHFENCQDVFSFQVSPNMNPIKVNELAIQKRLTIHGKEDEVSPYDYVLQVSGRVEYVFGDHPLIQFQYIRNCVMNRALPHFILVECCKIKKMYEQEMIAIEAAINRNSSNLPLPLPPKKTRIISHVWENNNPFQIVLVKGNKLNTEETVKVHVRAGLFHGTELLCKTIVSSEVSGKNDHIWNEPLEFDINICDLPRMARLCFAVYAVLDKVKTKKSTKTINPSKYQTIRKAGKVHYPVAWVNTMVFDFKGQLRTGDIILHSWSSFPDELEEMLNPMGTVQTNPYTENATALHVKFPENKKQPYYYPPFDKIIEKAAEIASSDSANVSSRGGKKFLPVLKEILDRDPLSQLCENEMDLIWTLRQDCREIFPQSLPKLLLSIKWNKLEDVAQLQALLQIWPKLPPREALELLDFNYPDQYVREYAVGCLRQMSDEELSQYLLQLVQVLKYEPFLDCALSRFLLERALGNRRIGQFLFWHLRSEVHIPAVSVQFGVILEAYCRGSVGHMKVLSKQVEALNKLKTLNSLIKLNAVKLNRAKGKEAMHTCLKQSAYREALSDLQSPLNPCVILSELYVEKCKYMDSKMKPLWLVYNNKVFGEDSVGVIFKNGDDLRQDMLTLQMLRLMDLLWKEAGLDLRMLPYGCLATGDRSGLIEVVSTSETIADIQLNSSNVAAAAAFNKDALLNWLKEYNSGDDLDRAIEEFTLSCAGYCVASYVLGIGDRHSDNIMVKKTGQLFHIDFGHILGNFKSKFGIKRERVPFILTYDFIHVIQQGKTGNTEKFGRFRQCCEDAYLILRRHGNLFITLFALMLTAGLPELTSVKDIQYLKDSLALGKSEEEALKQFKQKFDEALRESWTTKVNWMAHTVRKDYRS
T1 sequence (P27986 whole entry partner): as the sequence (P27986 whole entry partner) above
T4 sequence (O00329 whole entry): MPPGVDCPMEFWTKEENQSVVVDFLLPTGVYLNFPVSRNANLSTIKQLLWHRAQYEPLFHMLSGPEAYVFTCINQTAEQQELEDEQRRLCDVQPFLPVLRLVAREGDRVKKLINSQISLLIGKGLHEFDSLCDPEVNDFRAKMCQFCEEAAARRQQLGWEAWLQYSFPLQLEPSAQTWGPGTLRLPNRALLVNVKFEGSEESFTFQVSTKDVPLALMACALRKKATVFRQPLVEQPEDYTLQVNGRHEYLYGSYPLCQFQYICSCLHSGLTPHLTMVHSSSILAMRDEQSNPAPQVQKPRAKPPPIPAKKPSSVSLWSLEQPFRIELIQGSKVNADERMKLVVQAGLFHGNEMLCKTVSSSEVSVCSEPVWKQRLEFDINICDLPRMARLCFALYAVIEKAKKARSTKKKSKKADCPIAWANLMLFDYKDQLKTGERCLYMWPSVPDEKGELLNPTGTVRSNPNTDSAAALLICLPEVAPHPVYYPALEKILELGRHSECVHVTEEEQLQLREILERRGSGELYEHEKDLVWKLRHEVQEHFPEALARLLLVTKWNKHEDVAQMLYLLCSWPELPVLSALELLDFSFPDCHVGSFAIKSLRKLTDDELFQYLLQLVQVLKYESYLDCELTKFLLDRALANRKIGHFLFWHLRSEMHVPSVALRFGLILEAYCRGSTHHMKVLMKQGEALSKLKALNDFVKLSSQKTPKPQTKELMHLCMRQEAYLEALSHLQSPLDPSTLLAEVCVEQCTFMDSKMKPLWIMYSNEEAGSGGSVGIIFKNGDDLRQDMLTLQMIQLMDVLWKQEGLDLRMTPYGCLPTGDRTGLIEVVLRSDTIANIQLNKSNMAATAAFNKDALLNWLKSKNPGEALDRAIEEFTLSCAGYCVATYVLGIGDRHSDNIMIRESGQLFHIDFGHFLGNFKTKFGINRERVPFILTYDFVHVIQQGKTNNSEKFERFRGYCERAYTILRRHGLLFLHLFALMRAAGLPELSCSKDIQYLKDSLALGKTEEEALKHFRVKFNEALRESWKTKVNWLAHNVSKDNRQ
T4 sequence (P27986 whole entry partner): as the sequence (P27986 whole entry partner) above

SMILES | IC50 [1] | IC50 [2] | IC50 [3] | IC50 [4]
CC(c1cc2ccccn2c1-c1cccc(C2CCCN2C)c1)n1nc(-c2cc(O)cc(F)c2)c2c(N)ncnc21 (mixture of isomers) [Example 118, 3-[4-amino-1-(1-{3-[3-(1-methylpyrrolidin-2-yl)phenyl]indolizin-2-yl}ethyl)-1H-pyrazolo[3,4-d]pyrimidin-3-yl]-5-fluorophenol] | 0.01 to 1 µM | > 1 µM | > 1 µM | 0.01 to 1 µM
CC(c1cc2ccccn2c1-c1ccccn1)n1nc(-c2cc(O)cc(F)c2)c2c(N)ncnc21 (racemic) [Example 79, 3-(4-amino-1-{1-[3-(pyridin-2-yl)indolizin-2-yl]ethyl}-1H-pyrazolo[3,4-d]pyrimidin-3-yl)-5-fluorophenol] | 0.01 to 1 µM | 0.01 to 1 µM | 0.01 to 1 µM | < 0.01 µM
CC(c1cc2ccccn2c1-c1ccncc1)n1nc(-c2cc(O)cc(F)c2)c2c(N)ncnc21 (racemic) [Example 82, 3-(4-amino-1-{1-[3-(pyridin-4-yl)indolizin-2-yl]ethyl}-1H-pyrazolo[3,4-d]pyrimidin-3-yl)-5-fluorophenol] | 0.01 to 1 µM | > 1 µM | 0.01 to 1 µM | < 0.01 µM
CC(c1cc2ccccn2c1-c1cccc(CN(C)C)c1)n1nc(-c2cc(O)cc(F)c2)c2c(N)ncnc21 (racemic) [Example 93, 3-{4-amino-1-[1-(3-{3-[(dimethylamino)methyl]phenyl}indolizin-2-yl)ethyl]-1H-pyrazolo[3,4-d]pyrimidin-3-yl}-5-fluorophenol] | 0.01 to 1 µM | 0.01 to 1 µM | 0.01 to 1 µM | 0.01 to 1 µM
C[C@@H](c1cc2ccccn2c1-c1ccccn1)n1nc(-c2cc(O)cc(F)c2)c2c(N)ncnc21 (single isomer, unassigned) [Example 80, 3-(4-amino-1-{1-[3-(pyridin-2-yl)indolizin-2-yl]ethyl}-1H-pyrazolo[3,4-d]pyrimidin-3-yl)-5-fluorophenol] | 0.01 to 1 µM | 0.01 to 1 µM | 0.01 to 1 µM | < 0.01 µM
C[C@@H](c1cc2ccccn2c1-c1ccccn1)n1nc(-c2cc(O)cc(F)c2)c2c(N)ncnc21 (single isomer, unassigned) [Example 81, 3-(4-amino-1-{1-[3-(pyridin-2-yl)indolizin-2-yl]ethyl}-1H-pyrazolo[3,4-d]pyrimidin-3-yl)-5-fluorophenol] | > 1 µM | > 1 µM | > 1 µM | 0.01 to 1 µM
C[C@@H](c1cc2ccccn2c1-c1ccncc1)n1nc(-c2cc(O)cc(F)c2)c2c(N)ncnc21 (single isomer, unassigned) [Example 83, 3-(4-amino-1-{1-[3-(pyridin-4-yl)indolizin-2-yl]ethyl}-1H-pyrazolo[3,4-d]pyrimidin-3-yl)-5-fluorophenol] | 0.01 to 1 µM | 0.01 to 1 µM | 0.01 to 1 µM | < 0.01 µM
C[C@@H](c1cc2ccccn2c1-c1ccncc1)n1nc(-c2cc(O)cc(F)c2)c2c(N)ncnc21 (single isomer, unassigned) [Example 84, 3-(4-amino-1-{1-[3-(pyridin-4-yl)indolizin-2-yl]ethyl}-1H-pyrazolo[3,4-d]pyrimidin-3-yl)-5-fluorophenol] | > 1 µM | > 1 µM | > 1 µM | 0.01 to 1 µM
C[C@H](c1cc2ccccn2c1-c1cccc(CN(C)C)c1)n1nc(-c2cc(O)cc(F)c2)c2c(N)ncnc21 (single isomer, unassigned) [Example 93a, 3-{4-amino-1-[1-(3-{3-[(dimethylamino)methyl]phenyl}indolizin-2-yl)ethyl]-1H-pyrazolo[3,4-d]pyrimidin-3-yl}-5-fluorophenol] | 0.01 to 1 µM | 0.01 to 1 µM | > 1 µM | < 0.01 µM
C[C@H](c1cc2ccccn2c1-c1cccc(CN(C)C)c1)n1nc(-c2cc(O)cc(F)c2)c2c(N)ncnc21 (single isomer, unassigned) [Example 93b, 3-{4-amino-1-[1-(3-{3-[(dimethylamino)methyl]phenyl}indolizin-2-yl)ethyl]-1H-pyrazolo[3,4-d]pyrimidin-3-yl}-5-fluorophenol] | 0.01 to 1 µM | > 1 µM | > 1 µM | 0.01 to 1 µM
C[C@H](c1cc2ccccn2c1-c1ccc(CN2CCOCC2)cn1)n1nc(-c2cc(O)cc(F)c2)c2c(N)ncnc21 (single isomer, unassigned) [Example 108a, 3-[4-amino-1-(1-{3-[5-(morpholin-4-ylmethyl)pyridin-2-yl]indolizin-2-yl}ethyl)-1H-pyrazolo[3,4-d]pyrimidin-3-yl]-5-fluorophenol] | 0.01 to 1 µM | > 1 µM | > 1 µM | < 0.01 µM
C[C@H](c1cc2ccccn2c1-c1ccc(CN2CCOCC2)cn1)n1nc(-c2cc(O)cc(F)c2)c2c(N)ncnc21 (single isomer, unassigned) [Example 108b, 3-[4-amino-1-(1-{3-[5-(morpholin-4-ylmethyl)pyridin-2-yl]indolizin-2-yl}ethyl)-1H-pyrazolo[3,4-d]pyrimidin-3-yl]-5-fluorophenol] | 0.01 to 1 µM | > 1 µM | > 1 µM | < 0.01 µM
C[C@H](c1cc2ccccn2c1-c1ccc(CN2CCN(C)CC2)cn1)n1nc(-c2cc(O)cc(F)c2)c2c(N)ncnc21 (single isomer, unassigned) [Example 114a, 3-{4-amino-1-[1-(3-{5-[(4-methylpiperazin-1-yl)methyl]pyridin-2-yl}indolizin-2-yl)ethyl]-1H-pyrazolo[3,4-d]pyrimidin-3-yl}-5-fluorophenol] | 0.01 to 1 µM | 0.01 to 1 µM | 0.01 to 1 µM | < 0.01 µM
C[C@H](c1cc2ccccn2c1-c1ccc(CN2CCN(C)CC2)cn1)n1nc(-c2cc(O)cc(F)c2)c2c(N)ncnc21 (single isomer, unassigned) [Example 114b, 3-{4-amino-1-[1-(3-{5-[(4-methylpiperazin-1-yl)methyl]pyridin-2-yl}indolizin-2-yl)ethyl]-1H-pyrazolo[3,4-d]pyrimidin-3-yl}-5-fluorophenol] | 0.01 to 1 µM | 0.01 to 1 µM | 0.01 to 1 µM | < 0.01 µM
C[C@H](c1cc2ccccn2c1-c1ccc(CN(CCO)CCO)cn1)n1nc(-c2cc(O)cc(F)c2)c2c(N)ncnc21 (single isomer, unassigned) [Example 117a, 3-(4-amino-1-{1-[3-(5-{[bis(2-hydroxyethyl)amino]methyl}pyridin-2-yl)indolizin-2-yl]ethyl}-1H-pyrazolo[3,4-d]pyrimidin-3-yl)-5-fluorophenol] | 0.01 to 1 µM | 0.01 to 1 µM | > 1 µM | < 0.01 µM
C[C@H](c1cc2ccccn2c1-c1ccc(CN(CCO)CCO)cn1)n1nc(-c2cc(O)cc(F)c2)c2c(N)ncnc21 (single isomer, unassigned) [Example 117b, 3-(4-amino-1-{1-[3-(5-{[bis(2-hydroxyethyl)amino]methyl}pyridin-2-yl)indolizin-2-yl]ethyl}-1H-pyrazolo[3,4-d]pyrimidin-3-yl)-5-fluorophenol] | 0.01 to 1 µM | 0.01 to 1 µM | > 1 µM | < 0.01 µM
C[C@H](c1cc2ccccn2c1-c1ccn(CCN2CCOCC2)c(=O)c1)n1nc(-c2cc(O)cc(F)c2)c2c(N)ncnc21 (single isomer, unassigned) [Example 121a, 4-(2-{1-[4-amino-3-(3-fluoro-5-hydroxyphenyl)-1H-pyrazolo[3,4-d]pyrimidin-1-yl]ethyl}indolizin-3-yl)-1-[2-(morpholin-4-yl)ethyl]-1,2-dihydropyridin-2-one] | > 1 µM | > 1 µM | > 1 µM | 0.01 to 1 µM
C[C@H](c1cc2ccccn2c1-c1ccn(CCN2CCOCC2)c(=O)c1)n1nc(-c2cc(O)cc(F)c2)c2c(N)ncnc21 (single isomer, unassigned) [Example 121b, 4-(2-{1-[4-amino-3-(3-fluoro-5-hydroxyphenyl)-1H-pyrazolo[3,4-d]pyrimidin-1-yl]ethyl}indolizin-3-yl)-1-[2-(morpholin-4-yl)ethyl]-1,2-dihydropyridin-2-one] | 0.01 to 1 µM | 0.01 to 1 µM | 0.01 to 1 µM | < 0.01 µM
